Like-named read-outs stand apart in the source and are kept apart here. Some results are limits rather than exact numbers.

Common to all, as to type: cell-based
Test [1] has as its target T1, CNR1 (also known as CB1) (Homo sapiens, UniProt P21554).
T1 construct: β-galactosidase enzyme fragment (implied by the complementation read-out)
The following applies: read-out: CNR1 cAMP EC50.

The target in test [2] is T1, CNR1 (also known as CB1). Particulars: read-out: CNR1 β-Arrestin EC50.
In test [3] the target is T2, CNR2 (also known as CB2) (Homo sapiens, UniProt P34972).
T2 construct: β-galactosidase enzyme fragment (implied by the complementation read-out)
T2 sequence (P34972 whole entry, species assumed, the tested form may be a part): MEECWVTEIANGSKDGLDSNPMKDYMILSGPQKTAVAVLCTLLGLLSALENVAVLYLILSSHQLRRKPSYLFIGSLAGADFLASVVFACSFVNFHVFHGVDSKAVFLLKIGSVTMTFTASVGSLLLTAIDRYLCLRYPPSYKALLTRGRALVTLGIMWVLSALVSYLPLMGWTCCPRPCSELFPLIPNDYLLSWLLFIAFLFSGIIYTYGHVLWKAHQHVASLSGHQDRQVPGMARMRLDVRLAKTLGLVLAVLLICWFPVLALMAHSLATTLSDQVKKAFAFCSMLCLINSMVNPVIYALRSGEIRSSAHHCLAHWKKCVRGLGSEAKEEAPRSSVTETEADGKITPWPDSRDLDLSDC
Kind of test: β-arrestin GPCR assay (PathHunter), CNR2 activation. The following applies: CNR2, β-arrestin recruitment. For orientation: Arrestin recruitment assays detect the binding of arrestin to an activated receptor.

The target of test [4] is T2, CNR2 (also known as CB2). The test can be described thus: cAMP competitive inhibition immunoassay (HitHunter), CNR2 activation. The following applies: CNR2, cAMP assay.

T1 sequence (P21554 whole entry, species assumed, the tested form may be a part): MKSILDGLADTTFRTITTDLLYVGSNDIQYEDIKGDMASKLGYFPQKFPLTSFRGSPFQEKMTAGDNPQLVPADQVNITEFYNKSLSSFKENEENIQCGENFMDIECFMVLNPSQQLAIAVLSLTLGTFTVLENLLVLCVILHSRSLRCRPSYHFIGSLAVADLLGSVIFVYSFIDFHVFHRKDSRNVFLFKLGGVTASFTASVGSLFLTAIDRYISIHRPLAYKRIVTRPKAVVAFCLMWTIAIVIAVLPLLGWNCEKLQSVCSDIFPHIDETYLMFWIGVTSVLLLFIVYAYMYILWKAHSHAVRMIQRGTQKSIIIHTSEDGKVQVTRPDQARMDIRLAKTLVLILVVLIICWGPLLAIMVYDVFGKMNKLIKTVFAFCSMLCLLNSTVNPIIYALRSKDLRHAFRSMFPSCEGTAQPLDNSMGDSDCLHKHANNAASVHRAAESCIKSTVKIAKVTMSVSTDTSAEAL

Turning to `CCCCCc1cc(O)c2c(c1)OC(C)(C)[C@@H]1CCC(CO)=C[C@@H]21` [Example 11-OH-THC], the EC50 – broadly, the concentration that produces a half-maximal response – at CNR1 (also known as CB1) [1] was 10.8 nM; at CNR1 (also known as CB1) [2], more than 16700 nM; on CNR2 (also known as CB2) [3] it was more than 16700 nM; at CNR2 (also known as CB2) [4] it was 571 nM.
